{"source": "patent US6316423A", "about": "“Method of treating ischemic, hypoxic and anoxic brain damage” (priority 1999, dated 2001)", "data": [{"tested_on": "adenosine A1 receptors", "experiment": "not given", "conditions": "cited from earlier work", "values": [{"smiles": "NC(=O)N1c2ccccc2C=Cc2ccccc21", "note": "[carbamazepine]", "antagonistic properties at adenosine A1 receptors": "marginal"}]}, {"molecular_target": "T1, Rat A1 adenosine receptor (Rattus norvegicus, UniProt P25099)", "T1 construct": "A1 adenosine receptors isolated from rats; from tissue", "T1 sequence (P25099 1-326)": "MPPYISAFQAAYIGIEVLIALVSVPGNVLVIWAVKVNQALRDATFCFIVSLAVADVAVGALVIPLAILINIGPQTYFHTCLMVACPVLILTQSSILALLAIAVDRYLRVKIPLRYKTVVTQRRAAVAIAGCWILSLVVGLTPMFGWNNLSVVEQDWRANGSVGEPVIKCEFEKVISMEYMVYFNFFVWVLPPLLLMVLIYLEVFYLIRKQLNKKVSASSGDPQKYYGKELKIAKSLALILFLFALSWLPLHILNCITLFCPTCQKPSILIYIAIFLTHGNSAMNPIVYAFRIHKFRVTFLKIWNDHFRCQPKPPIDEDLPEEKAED", "experiment": "Affinity for A1 adenosine receptors isolated from rats", "type": "binding", "conditions": "not given", "excerpt": "These methods are known in the art. For example, the synthesis of these compounds can be guided by U.S. Pat. No. 5,248,770 or by Jacobson et al., Journal of Medicinal Chemistry, 28, 1341-1346 (1985).", "units": {"Ki": "nM"}, "values": [{"smiles": "NCCCNC(=O)Cc1ccc(NC(=O)Cc2ccc(Nc3ncnc4c3ncn4[C@@H]3O[C@H](CO)[C@@H](O)[C@H]3O)cc2)cc1", "Ki": "1.96 ± 0.06"}, {"smiles": "NCCCCNC(=O)Cc1ccc(NC(=O)Cc2ccc(Nc3ncnc4c3ncn4[C@@H]3O[C@H](CO)[C@@H](O)[C@H]3O)cc2)cc1", "Ki": "1.91 ± 0.17"}, {"smiles": "Cc1ccc(C(=O)NCCNC(=O)Cc2ccc(NC(=O)Cc3ccc(Nc4ncnc5c4ncn5[C@@H]4O[C@H](CO)[C@@H](O)[C@H]4O)cc3)cc2)cc1", "note": "[compound 4]", "Ki": "11.9 ± 2"}, {"smiles": "Cc1ccc(C(=O)NCCCNC(=O)Cc2ccc(NC(=O)Cc3ccc(Nc4ncnc5c4ncn5[C@@H]4O[C@H](CO)[C@@H](O)[C@H]4O)cc3)cc2)cc1", "note": "[compound 5]", "Ki": "5.67 ± 0.055"}, {"smiles": "Cc1ccc(C(=O)NCCCCNC(=O)Cc2ccc(NC(=O)Cc3ccc(Nc4ncnc5c4ncn5[C@@H]4O[C@H](CO)[C@@H](O)[C@H]4O)cc3)cc2)cc1", "note": "[compound 6]", "Ki": "7.95 ± 0.76"}]}]}
